Where a name gives a salt, the structure may show the parent alone. Read-outs that look alike come from different tables or passages of the source.
Assays:
[1] = biological target: PIM-1 (Homo sapiens (Human), UniProt P11309); test: PIM-1 Enzyme Assay; format: biochemical
Procedure: The amount of radiolabeled product is then measured by liquid scintillation counting. The final buffer conditions were as follows: 20 mM K^+MOPS, pH 7.4, 10 mM MgCl2, 0.005% Tween-20, 1 mM DTT. […] Incubations were carried out for 60 min at 22° C. and quenched with 75 μL of 200 mM H3PO4, filtered through a Whatman P81 plate and washed (1×200 μL and 5×100 μL ) with 200 mM H3PO4. Liquid scintillation cocktail (50 μL ) was then added per well, and the plate was counted for 30 s/well using a TopCount NXT.
One-μL aliquots of these were then transferred to the assay mixtures above to give a final concentration of DMSO of 2%. […] For each plate, percent of control (POC) values were calculated for each well. IC50's were estimated from the POC's using a standard 4-parameter logistic model. The IC50 is defined as the concentration of inhibitor at which the POC equals 50 for the fitted curve.

[2] = biological target: GST-tagged recombinant full-length human PIM-2 (Homo sapiens (Human), UniProt Q9P1W9); test: PIM-2 Enzyme Assay
[3] = biological target: recombinant rat PIM-3 (Rattus norvegicus (Rat), UniProt O70444); test: PIM-3 Enzyme Assay; conditions: 30 μM ATP, 0.5 nM PIM-3
[4] = read-out: PIM-2 IC50, 4 μM ATP, […] PIM-2
[5] = PIM-2 IC50 (nM), 4 μM ATP, […] PIM-2

Sequence of PIM-1 (P11309 whole entry, species assumed): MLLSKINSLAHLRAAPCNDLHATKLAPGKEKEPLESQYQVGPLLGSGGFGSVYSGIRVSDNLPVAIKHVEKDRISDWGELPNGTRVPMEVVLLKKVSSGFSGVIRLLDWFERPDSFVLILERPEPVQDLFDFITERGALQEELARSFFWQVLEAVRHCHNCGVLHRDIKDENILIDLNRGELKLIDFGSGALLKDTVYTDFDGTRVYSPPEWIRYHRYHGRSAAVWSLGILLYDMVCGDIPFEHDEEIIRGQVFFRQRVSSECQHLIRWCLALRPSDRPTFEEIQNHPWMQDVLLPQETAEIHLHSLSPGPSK
Sequence of GST-tagged recombinant full-length human PIM-2 (Q9P1W9 whole entry): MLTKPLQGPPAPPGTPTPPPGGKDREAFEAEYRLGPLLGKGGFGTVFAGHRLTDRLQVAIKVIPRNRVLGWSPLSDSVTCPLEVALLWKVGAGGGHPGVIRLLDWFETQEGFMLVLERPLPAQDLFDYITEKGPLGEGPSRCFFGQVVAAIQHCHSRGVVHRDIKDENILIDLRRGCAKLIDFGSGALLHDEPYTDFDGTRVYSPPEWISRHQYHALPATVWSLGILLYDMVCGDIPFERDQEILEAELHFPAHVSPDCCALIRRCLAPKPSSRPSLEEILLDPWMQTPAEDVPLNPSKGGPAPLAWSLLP

IC50 ([1]; 35 μM ATP, 0.25 nM PIM-1) [µM]	IC50 [2, 4] [nM]	IC50 ([3]; read-out: PIM-3 IC50) [nM]	IC50 [2, 5] [nM]	IC50 ([3]; PIM-3 IC50 (nM)) [nM]	SMILES	IC50 [1] [µM]	IC50 ([2]; read-out: PIM-2 IC50) [nM]
0.178	10000	465	–	–	CN(C)C(=O)[C@@H]1C[C@@H](Oc2cccc3ccc(-c4nnc5ccccn45)nc23)CCN1 [Example 54, (2S,4S)-4-(2-([1,2,4]triazolo[4,3-a]pyridin-3-yl)quinolin-8-yloxy)-N,N-dimethylpiperidine-2-carboxamide dihydrochloride]	–	–
0.0015	352	2	–	–	Cc1ccc2nnc(-c3ccc4cccc(OC5CCNCCC5F)c4n3)n2c1 (single isomer, unassigned) [Example 100, 8-((trans)-5-fluoroazepan-4-yloxy)-2-(6-methyl-[1,2,4]triazolo[4,3-a]pyridin-3-yl)quinoline]	–	–
0.003	807	25	–	–	O[C@H]1CC[C@H](Nc2cccc3ccc(-c4nnc5ccccn45)nc23)CC1 [Example 3, (trans)-4-(2-([1,2,4]Triazolo[4,3-a]pyridin-3-yl)quinolin-8-ylamino)cyclohexanol]	–	–
0.012	1280	46	–	–	NC(=O)N1CCC(Oc2cccc3ccc(-c4nnc5ccccn45)nc23)CC1 [Example 40, 4-(2-([1,2,4]triazolo[4,3-a]pyridin-3-yl)quinolin-8-yloxy)piperidine-1-carboxamide]	–	–
0.132	10000	728	–	–	c1cc(OC[C@@H]2CCCN2)c2nc(-c3nnc4ccccn34)ccc2c1 [Example 61, (S)-2-([1,2,4]triazolo[4,3-a]pyridin-3-yl)-8-(pyrrolidin-2-ylmethoxy)quinoline]	–	–
0.023	2470	33	–	–	c1cc(O[C@@H]2CCNC2)c2nc(-c3nnc4ccccn34)ccc2c1 [Example 11, (R)-2-([1,2,4]Triazolo[4,3-a]pyridin-3-yl)-8-(pyrrolidin-3-yloxy)quinoline]	–	–
0.00095	69	3	–	–	CC1(COc2cccc3ccc(-c4nnc5ccccn45)nc23)CCNCC1 [Example 67, 2-([1,2,4]triazolo[4,3-a]pyridin-3-yl)-8-((4-methylpiperidin-4-yl)methoxy)quinoline dihydrochloride]	–	–
0.167	–	248	–	–	COC(=O)[C@@H]1C[C@H](Oc2cccc3ccc(-c4nnc5ccccn45)nc23)CN1 [Example 87, (2S,4S)-methyl 4-(2-([1,2,4]triazolo[4,3-a]pyridin-3-yl)quinolin-8-yloxy)pyrrolidine-2-carboxylate]	–	–
0.016	5570	93	–	–	CC(C)CCN(CCCN)c1cccc2ccc(-c3nnc4ccccn34)nc12 [Example 8, N1-(2-([1,2,4]Triazolo[4,3-a]pyridin-3-yl)quinolin-8-yl)-N1-isopentylpropane-1,3-diamine]	–	–
0.0007	–	–	147	4	FC1CCNCCC1Oc1cccc2ccc(-c3nnc4ccccn34)nc12 (single isomer, unassigned) [Example 48, 2-([1,2,4]triazolo[4,3-a]pyridin-3-yl)-8-(5-fluoroazepan-4-yloxy)quinoline dihydrochloride]	–	–
0.013	1350	51	–	–	CCCC(Oc1cccc2ccc(-c3nnc4ccccn34)nc12)[C@@H](CC)CN (stereo partly drawn) [Example 34, (2S)-3-(2-([1,2,4]triazolo[4,3-a]pyridin-3-yl)quinolin-8-yloxy)-2-ethylhexan-1-amine]	–	–
0.005	1040	35	–	–	NCCCNc1cccc2ccc(-c3nnc4ccccn34)nc12 [Example 7, N1-(2-([1,2,4]Triazolo[4,3-a]pyridin-3-yl)quinolin-8-yl)propane-1,3-diamine]	–	–
0.004	399	17	–	–	CC[C@@H](CN)C(C)Oc1cccc2ccc(-c3nnc4ccccn34)nc12 (stereo partly drawn) [Example 32, (2S)-3-(2-([1,2,4]triazolo[4,3-a]pyridin-3-yl)quinolin-8-yloxy)-2-ethylbutan-1-amine]	–	–
0.0048	438	6.8	–	–	c1cc(OC2CCCNCC2)c2nc(-c3nnc4ccccn34)ccc2c1 (single isomer, unassigned) [Example 127, 2-([1,2,4]triazolo[4,3-a]pyridin-3-yl)-8-(azepan-4-yloxy)quinoline]	–	–
0.022	6020	105	–	–	c1cc(N[C@H]2CCNC2)c2nc(-c3nnc4ccccn34)ccc2c1 [Example 4, (S)-2-([1,2,4]Triazolo[4,3-a]pyridin-3-yl)-N-(pyrrolidin-3-yl)quinolin-8-amine]	–	–
0.032	10000	155	–	–	CC(C)(C)OC(=O)NCCCNc1cccc2ccc(-c3nnc4ccccn34)nc12 [Example 6, tert-Butyl 3-(2-([1,2,4]triazolo[4,3-a]pyridin-3-yl)quinolin-8-ylamino)propylcarbamate]	–	–
0.00092	–	–	100	2	FC1CCNCCC1Oc1cccc2ccc(-c3nnc4ccccn34)nc12 (single isomer, unassigned) [Example 49, 2-([1,2,4]triazolo[4,3-a]pyridin-3-yl)-8-(5-fluoroazepan-4-yloxy)quinoline dihydrochloride]	–	–
0.01	1360	48	–	–	CCCC(Oc1cccc2ccc(-c3nnc4ccccn34)nc12)[C@H](CC)CN (stereo partly drawn) [Example 35, (2R)-3-(2-([1,2,4]triazolo[4,3-a]pyridin-3-yl)quinolin-8-yloxy)-2-ethylhexan-1-amine]	–	–
0.016	10000	112	–	–	OC1(COc2cccc3ccc(-c4nnc5ccccn45)nc23)CCN(Cc2ccccc2)CC1 [Example 71, 4-((2-([1,2,4]triazolo[4,3-a]pyridin-3-yl)quinolin-8-yloxy)methyl)-1-benzylpiperidin-4-ol]	–	–
0.0175	1000	23.5	–	–	Cc1ccn2c(-c3ccc4cccc(OC5CCNCCC5F)c4n3)nnc2c1 (single isomer, unassigned) [Example 122, 8-((cis-4,5)-5-fluoroazepan-4-yloxy)-2-(7-methyl-[1,2,4]triazolo[4,3-a]pyridin-3-yl)quinoline]	–	–
–	167	8.8	–	–	CC(C)(COc1cccc2ccc(-c3nnc4ccccn34)nc12)[C@@H](O)CO [Example 113, (R)-4-(2-([1,2,4]triazolo[4,3-a]pyridin-3-yl)quinolin-8-yloxy)-3,3-dimethylbutane-1,2-diol]	–	–
–	323	13	–	–	CCNCC(C)(C)COc1cccc2ccc(-c3nnc4ccccn34)nc12 [Example 27, 3-(2-([1,2,4]triazolo[4,3-a]pyridin-3-yl)quinolin-8-yloxy)-N-ethyl-2,2-dimethylpropan-1-amine di-trifluoroacetate]	–	–
–	189	9	–	–	COC(=O)[C@@H]1C[C@@H](Oc2cccc3ccc(-c4nnc5ccccn45)nc23)CCN1 [Example 13, (2S,4S)-Methyl 4-(2-([1,2,4]triazolo[4,3-a]pyridin-3-yl)quinolin-8-yloxy)piperidine-2-carboxylate]	–	–
–	514	13	–	–	NCCCOc1cccc2ccc(-c3nnc4ccccn34)nc12 [Example 10, 3-(2-([1,2,4]Triazolo[4,3-a]pyridin-3-yl)quinolin-8-yloxy)propan-1-amine]	–	–

SMILES	IC50 ([1]; 35 μM ATP, 0.25 nM PIM-1) [µM]	IC50 [2, 4] [nM]	IC50 ([3]; read-out: PIM-3 IC50) [nM]	IC50 [2, 5] [nM]	IC50 ([3]; PIM-3 IC50 (nM)) [nM]	IC50 [1] [µM]	IC50 ([2]; read-out: PIM-2 IC50) [nM]
F[C@H]1CNCC[C@@H]1Oc1cccc2ccc(-c3nnc4ccccn34)nc12 (relative stereo) [Example 25, 2-([1,2,4]triazolo[4,3-a]pyridin-3-yl)-8-((trans)-3-fluoropiperidin-4-yloxy)quinoline]	0.004	686	20	–	–	–	–
COC1(COc2cccc3ccc(-c4nnc5ccccn45)nc23)CCNCC1 [Example 73, 2-([1,2,4]triazolo[4,3-a]pyridin-3-yl)-8-((4-methoxypiperidin-4-yl)methoxy)quinoline bis(trifluoroacetate)]	–	79	5	–	–	0.00096	–
OC[C@@H]1C[C@@H](Oc2cccc3ccc(-c4nnc5ccccn45)nc23)CCN1 [Example 56, ((2S,4S)-4-(2-([1,2,4]triazolo[4,3-a]pyridin-3-yl)quinolin-8-yloxy)piperidin-2-yl)methanol dihydrochloride]	–	427	24	–	–	0.009	–
CC(C)COc1cccc2ccc(-c3nnc4cc(CN)ccn34)nc12 [Example 20, (3-(8-isobutoxyquinolin-2-yl)-[1,2,4]triazolo[4,3-a]pyridin-7-yl)methanamine]	0.002	51	5	–	–	–	–
CC(C)(CN)COc1cccc2ccc(-c3nnc4ccc(C5CC5)cn34)nc12 [Example 64, 3-(2-(6-cyclopropyl-[1,2,4]triazolo[4,3-a]pyridin-3-yl)quinolin-8-yloxy)-2,2-dimethylpropan-1-amine dihydrochloride]	–	–	5	–	–	0.00064	323
c1cc(OC2CC3CCC(C2)N3)c2nc(-c3nnc4ccccn34)ccc2c1 (stereo not shown) [Example 29, 8-(8-azabicyclo[3.2.1]octan-3-yloxy)-2-([1,2,4]triazolo[4,3-a]pyridin-3-yl)quinoline]	0.005	585	30	–	–	–	–

Source: patent US8575145B2, “Triazolopyridine compounds as PIM kinase inhibitors” (Array BioPharma Inc., priority 2008, dated 2013)
